Measured values reported in patent publication US7412284B2, “Apparatus for electroporation mediated delivery for drugs and genes” (Genetronics, Inc., priority 1997, dated 2008).

How the values were obtained:
[1] = system: Cutaneous and Subcutaneous Cancer; assay: Clinical studies using bleomycin sulfate and EPT, cutaneous and subcutaneous cancer; assay type: in vivo, humans
[2] = system: Head and Neck Cancer; assay: Clinical study of EPT with intralesional bleomycin for head and neck cancers; assay type: in vivo, humans; set-up: key to Response Status: Complete Response (CR): Disappearance of all evidence of tumor as determined by physical examination, and/or biopsy.; Partial Response (PR): 50% or greater reduction in tumor volume.; No Response (NR): less than 50% reduction in tumor volume
Procedure: All of the following patients were treated with bleomycin intratumoral injection and needle arrays of different diameters with six needles. The voltage was set to achieve a nominal electric field strength of 1300 V/cm (the needle array diameter was multiplied by 1300 to give the voltage the generator was set at). The pulse length was 100 μs.
The study was designed as a single center feasibility clinical study in which the efficacy of the EPT procedure in combination with intralesional bleomycin was compared to that for traditional surgery, radiation, and/or systemic chemotherapy. Approximately 50 study subjects were enrolled in the study. All study subjects were assessed prior to treatment by examination and biopsy. Postoperative assessment of study subjects was weekly for 4-6 weeks, and monthly thereafter for a total of 12 months. Approximately 8 to 12 weeks following therapy, a biopsy of the tumor site was performed. Use of CT or MRI scans was utilized in accordance to standard medical follow-up evaluation of HNC subjects.
Tumor evaluation includes measuring the tumor diameter (in centimeters) and estimating its volume (in cubic centimeters). Prior to intratumoral administration of bleomycin sulfate, the tumor site is anesthetized with 1% lidocaine (xylocaine) and 1:100,000 epinephrine. The concentration of bleomycin sulfate injected is 4 units per milliliter, up to a maximum dose of 5 units per tumor. If more than one tumor per subject is treated, a total of 20 units per subject should not be exceeded. The dose of bleomycin administered is to be 1 unit/cm^3 of calculated tumor volume. Approximately ten minutes subsequent to the injection of bleomycin sulfate, the applicator is placed on the tumor and electrical pulses initiated. Each application or an initiation of electrical pulses is referred to as a sequence. The use of EPT is not a contraindication to any subsequent palliative treatment required by the subject.
In this study, success was defined as significant tumor regression in a period of 16 weeks or less without major side effects seen with traditional therapy. There are three possible response outcomes:
Complete Response (CR): Disappearance of all evidence of tumor as determined by physical examination, and/or biopsy. • Partial Response (PR): 50% or greater reduction in tumor volume. • No Response (NR): less than 50% reduction in tumor volume.
If the tumor increases (25% tumor volume) in size, other therapy, if indicated, was instituted per subject's desire.

[3] = system: Panc-3; assay: EPT of Panc-3 with neocarcinostatin, pre- and post-pulse injection; assay type: in vivo, nude mice
Excerpt: The Panc-3 and NSCLC models were utilized with the drug neocarcinostatin (NCS) following the same procedures as outlined above. […] It was believed that due to the low isoelectric point of NCS, electrostatic interaction prevented the drug from entering the tumor cell. Therefore, the experiment was repeated by pulsing first and injecting NCS post-pulse.

[4] = enrollment start 01/20/95, Basal Cell, 18 patients, 54 lesions, IT 0.5 to 3 Units
[5] = enrollment start 01/20/95, Kaposi Sarcoma, 1 patient, 4 lesions, IT 1 to 2 Units
[6] = enrollment start 01/20/95, Met. Melanoma, 10 patients, 84 lesions, IT 0.2 to 2 Units
[7] = enrollment start 01/20/95, Squamous Cell, 1 patient, 1 lesion, IT 1.5 Units
[8] = enrollment start 01/20/95, Summary, 30 patients, 146 lesions
[9] = enrollment start 02/18/94, Basal Cell, 2 patients, 6 lesions, IV 22 to 23 Units
[10] = enrollment start 02/18/94, Met. Breast Adenocarcinoma, 1 patient, 2 lesions, IV 17 Units
[11] = enrollment start 02/18/94, Met. Melanoma, 3 patients, 10 lesions, IV 19 to 23 Units
[12] = enrollment start 08/01/96, Basal Cell, 7 patients, 8 lesions, IT 0.8 to 0.64 Units
[13] = enrollment start 08/01/96, Summary, 7 patients, 8 lesions
[14] = Adenocarcinoma, 2 patients, 2 lesions, IT 2 to 8 Units
[15] = Squamous Cell, 7 patients, 7 lesions, IT 1 to 16 Units

bleomycin sulfate
Tumor Response CR % [1, 4]: 94% | Tumor Response NR % [1, 4]: 0% | Tumor Response PR % [1, 4]: 9% | Tumor Response CR % [1, 5]: 100% | Tumor Response NR % [1, 5]: 0% | Tumor Response PR % [1, 5]: 0% | Tumor Response CR % [1, 6]: 91% | Tumor Response NR % [1, 6]: 2% | Tumor Response PR % [1, 6]: 9% | Tumor Response CR % [1, 7]: 0% | Tumor Response NR % [1, 7]: 0% | Tumor Response PR % [1, 7]: 100% | Tumor Response CR % [1, 8]: 89% | Tumor Response NR % [1, 8]: 1% | Tumor Response PR % [1, 8]: 10% | Tumor Response CR % [1, 9]: 17% | Tumor Response NR % [1, 9]: 0% | Tumor Response PR % [1, 9]: 83% | Tumor Response CR % [1, 10]: 100% | Tumor Response NR % [1, 10]: 0% | Tumor Response PR % [1, 10]: 0% | Tumor Response CR % [1, 11]: 30% | Tumor Response NR % [1, 11]: 50% | Tumor Response PR % [1, 11]: 20% | Tumor Response CR % [1, 12]: 67% | Tumor Response NR % [1, 12]: 0% | Tumor Response PR % [1, 12]: 33% | Tumor Response CR % [1, 13]: 67% | Tumor Response NR % [1, 13]: 0% | Tumor Response PR % [1, 13]: 33% | Tumor Response CR % [2, 14]: 0% | Tumor Response NR % [2, 14]: 100% | Tumor Response PR % [2, 14]: 100% | Tumor Response CR % [2, 15]: 43% | Tumor Response NR % [2, 15]: 29% | Tumor Response PR % [2, 15]: 29% | Response Status ([2]; Subject 1/J-S, first response (week 2)): PR (Partial Response (PR): 50% or greater reduction in tumor volume.) | Response Status ([2]; Subject 1/J-S, second response (week 8)): CR | Time to Response (Week) ([2]; Subject 1/J-S, to CR): 8 Week | Time to Response (Week) ([2]; Subject 1/J-S, to PR): 2 Week | Response Status ([2]; Subject 2/G-C): PR (Partial Response (PR): 50% or greater reduction in tumor volume.) | Time to Response (Week) ([2]; Subject 2/G-C): 4 Week | Response Status ([2]; Subject 3/L-O): CR | Time to Response (Week) ([2]; Subject 3/L-O): 3 Week | Response Status ([2]; Subject 4/G-R, first response (week 4)): PR (Partial Response (PR): 50% or greater reduction in tumor volume.) | Response Status ([2]; Subject 4/G-R, second response (week 9)): CR | Time to Response (Week) ([2]; Subject 4/G-R, to CR): 9 Week | Time to Response (Week) ([2]; Subject 4/G-R, to PR): 4 Week | Response Status ([2]; Subject 5/R-H, segmented treatment): NR** (No Response (NR): less than 50% reduction in tumor volume.) | Response Status ([2]; Subject 6/C-B): PR (Partial Response (PR): 50% or greater reduction in tumor volume.) | Time to Response (Week) ([2]; Subject 6/C-B): 2 Week | Response Status ([2]; Subject 7/C-J, segmented treatment): NR** (No Response (NR): less than 50% reduction in tumor volume.) | Response Status ([2]; Subject 8/L-J): PR (Partial Response (PR): 50% or greater reduction in tumor volume.) | Time to Response (Week) ([2]; Subject 8/L-J): 4 Week | Time to Response (Week) ([2]; Subject 9/J-T): 7 Week | Response Status ([2]; Subject 9/J-T, segmented treatment): PR** (Partial Response (PR): 50% or greater reduction in tumor volume.) | subjects with a complete response ([2]; Subject No. 1, 3 and 4, of 9 subjects): Three | subjects with a partial response ([2]; Subject No. 2, 6, 8 and 9, of 9 subjects): four | subjects with no response ([2]; Subject No. 5 and 7, of 9 subjects): two | Tumor Response CR % ([2]; Summary, 9 patients, 9 lesions): 33% | Tumor Response NR % ([2]; Summary, 9 patients, 9 lesions): 22% | Tumor Response PR % ([2]; Summary, 9 patients, 9 lesions): 44% | subjects who died prior to reaching week 12 ([2]; due to progressive disease or complications unrelated to study treatment (Subject No. 2, 5 and 7)): Three

B1: neocarcinostatin (protein, UniProt P0A3R9 35-147, looked up)
Neocarzinostatin: AAPTATVTPSSGLSDGTVVKVAGAGLQAGTAYDVGQCAWVDTGVLACNPADFSSVTADANGSASTSLTVRRSFEGFLFDGTRWGTVDCTTAACQVGLSDAAGNGPEGVAISFN
post-pulse versus pre-pulse administration ([3]; comparison of FIGS. 11a and 11b): more effective than pre-pulse administration | final vs initial tumor volume ([3]; post-pulse injection, day 13, mice ID 1, 2, 4 and 7 of 7, appeared to be due to edema): an increase in tumor volume was observed | tumor volume ([3]; post-pulse injection, day 23, separate group of 5 mice): all mice showed a marked reduction in tumor volume | reduction of tumor size ([3]; pre-pulse dosing): not effective in reducing tumor size at all
